{"source": "patent US7915050B2", "about": "“Regulatory genes for plant differentiation and growth, and use of the same” (National University Corporation Nagoya University, priority 2005, dated 2011)", "target": "T1, GID1 (Oryza sativa subsp. japonica, UniProt Q6L545)", "T1 construct": "GST (tag of vector pGEX-4T) (N); made in house", "T1 sequence (Q6L545 whole entry)": "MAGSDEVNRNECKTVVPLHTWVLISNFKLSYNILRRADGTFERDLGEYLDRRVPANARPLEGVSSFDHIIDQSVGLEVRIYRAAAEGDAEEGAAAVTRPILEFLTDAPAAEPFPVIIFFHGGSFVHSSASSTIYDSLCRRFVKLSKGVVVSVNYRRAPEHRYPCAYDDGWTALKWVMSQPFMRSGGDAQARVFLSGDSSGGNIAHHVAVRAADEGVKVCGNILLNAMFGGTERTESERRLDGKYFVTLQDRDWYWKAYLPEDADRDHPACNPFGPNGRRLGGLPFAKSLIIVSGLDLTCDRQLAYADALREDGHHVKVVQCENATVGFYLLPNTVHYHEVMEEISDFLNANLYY", "experiment": "Saturation/Scatchard and association/dissociation analysis of GA binding to recombinant GID1", "parameters": "species or system rice", "conditions": "Scatchard plot analysis", "method": "Panel a) depicts the saturability for the GA binding of GID1. […] Bar represents the standard deviation (n=3). Panel b) depicts the results of a Scatchard plot for the data of binding shown in a. The Kd value was calculated (correlation coefficient R^2=0.96) from t three independent experimental results. Panel c) depicts the ^3H-GA association/dissociation rate to GID1. […] Bar represents the standard deviation (n=3). […] Upper panel, none of three recombinant proteins of mutant GID1s (GID1-1, 1-2, and 1-3) corresponding to the three gid1 alleles interacted with GA4. […] Bar represents the standard deviation (n=3). Bottom panel, Coomassie brilliant blue stain of the recombinant proteins used in this experiment. Dot represents GID or tag proteins in the SDS-PAGE profile. In this experiment, almost equal amounts of proteins were used for each (80 pmol). Panel e) depicts the gross morphologies of a GID1-overexpressing plant (Actin1 promoter-GID1, right) and wild type plant (control, left) three months after seeding. Bar=50 cm. f) dose-dependent GA response in the elongation of the second leaf sheath of GID1overexpressing plant (closed triangle) and wild type (closed circle). Bar represents the standard deviation (n=5).\nIn the gibberellin-binding assay, [1,2,16,17-^3H4]16,17-dihydro-GA4 was used as a labeled GA4. In vitro GA-binding assays were carried out using previous methods with some modifications (Nakajima, M. et al., Biochem. Biophys. Res. Comm. 241, 782-786 (1997)). […] The eluate of the binding buffer (0.6 ml) was discarded, the subsequent eluate (0.2 ml) was collected, and the radioactivity was measured. The specific binding activity, reflecting the number of displaceable GA binding sites, was calculated by subtracting the amount of nonspecific binding from the amount of total binding. […]\nNext, the kinetics of the binding of GID1 to GA was analyzed. To calculate the Kd value of GID1 to GA, the saturability of GA binding was measured using various concentrations of GA4 derivative (FIG. 4a). […]"}
{"smiles": "CC1C[C@]23C[C@H]1CCC2[C@]12CC[C@H](O)[C@](C)(C(=O)O1)[C@H]2[C@@H]3C(=O)O", "note": "(stereo partly shown) [H2-GA4, 16,17-dihydro-GA4]", "values": [{"measurement": "Kd", "result": 1.4, "unit": "µM"}]}
